Laboratory results as given in patent US4156731A, “Heterocyclic oxime compounds and carbamoyloxime derivatives” (priority 1976, dated 1979).

Legend:
Format in all cases: in vivo
Parameters in all cases: key: A: Excellent control; B: Partial control; C: No control
[1] = tested on: Mexican bean beetle (Epilachna varivestis, Muls.); experiment: Mexican Bean Beetle Leaf Spray Test; details: fourth instar larvae, 500 ppm leaf spray, three days
Description: (§1) Selected species of the new compounds were evaluated to determine their pesticidal activity against mites and certain insects, including anaphid, a caterpillar, a beetle and a fly.
(§2) Suspensions of the test compounds were prepared by dissolving one gram of compound in 50 milliliters of acetone in which had been dissolved 0.1 gram (10 percent of the weight of compound) of an alkylphenoxy polyethoxyethanol surfactant, as an emulsifying or dispersing agent. The resulting solution was mixed into 150 milliliters of water to give roughly 200 milliliters of a suspension containing the compound in finely divided form. The thus-prepared stock suspension contained 0.5 percent by weight of test compound. The test concentrations in parts per million by weight employed in the tests described hereinbelow were obtained by appropriate dilutions of the stock suspension with water. The test procedures were as follows:
Mexican Bean Beetle Leaf Spray Test
Fourth instar larvae of the Mexican bean beetle (Epilachna varivestis, Muls.), reared on Tendergreen bean plants at a temperature of 80°±5° F. and 50±5 per cent relative humidity, were the test insects.
The test compounds were formulated by diluting the stock suspension with water to give a suspension containing 500 parts of test compound per million parts of final formulation. Potted Tendergreen bean plants of standard height and age were placed on a revolving turntable and sprayed with 100-110 milliliters of test compound formulation by use of DeVilbiss spray gun set at 10 psig air pressure. This application, which lasted 25 seconds, was sufficient to wet plants to run-off. As a control, 100-110 milliliters of a water-acetone-emulsifier solution containing no test compound were also sprayed on infested plants. When dry, the paired leaves were separated and each was placed in a 9 centimeter Petri dish lined with moistened filter paper. Five randomly selected larvae were introduced into each dish, and the dishes were closed. The closed dishes were labeled and held at a temperature of […]. for three days. Although the larvae could easily consume the leaf within 24 to 48 hours, no more food was added. Larvae which were unable to move the length of the body, even upon stimulation, were considered dead.
(§3) In these tests the pesticidal activity of the compounds against aphid, mite, Southern Armyworm, Mexican Bean Beetle, and house fly was rated as follows: […]

[2] = tested on: two spotted mite (Tetranychus urticae Koch); experiment: Mite Foliage Spray Test; details: 500 ppm foliage spray, six days
Description: as §1, §2
Adults and nymphal stages of the two spotted mite (Tetranychus urticae Koch), reared on Tendergreen bean plants at 80±5 per cent relative humidity, were the test organisms. Infested leaves from a stock culture were placed on the primary leaves of two bean plants six to eight inches in height, growing in a two-and-a-half inch clay pot. 150-200 mites, a sufficient number for testing, transferred from the excised leaves to the fresh plants in a period of twenty four hours. Following the twenty four hour transfer period, the excised leaves were removed from the infested plants. The test compounds were formulated by diluting the stock suspension with water to give a suspension with water to give a suspension containing 500 parts of test compound per million parts of final formulation. The potted plants (one pot per compound) were placed on a revolving turntable and sprayed with 100-110 milliliters of test compound formulation by use of a DeVilbiss spray gun set at 40 psig. air pressure. This application, which lasted for 25 seconds, was sufficient to wet the plants to run-off. As a control, 100-110 milliliters of a water solution containing acetone and emulsifier in the same concentrations as the test compound formulation, but containing no test compound, were also sprayed on infested plants. The sprayed plants were held at 80±5 per cent relative humidity for six days, after which a mortality count of motile forms were made. Microscopic examination for motile forms was made on the leaves of the test plants. Any individual which was capable of locomotion upon prodding, was considered living.
as §3

[3] = tested on: southern armyworm (Prodenia Eridania, (Cram.)); experiment: Southern Armyworm Leaf Spray Test; details: larvae, 500 ppm leaf spray, three days
Description: as §1, §2
Southern Armyworm Leaf Spray Test
Larvae of the southern armyworm (Prodenia Eridania, (Cram.), reared on Tendergreen bean plants at a temperature of 80°±5° F. and a relative humidity of 50±5 per cent, constituted the test insects.
The test compounds were formulated by diluting the stock suspension with water to give a suspension containing 500 parts of test compound per million parts of final formulation. Potted Tendergreen bean plants of standard height and age were placed on a revolving turntable and sprayed with […] of test compound formulation by use of a DeVilbiss spray gun set at 10 psig. air pressure.
This application, which lasted 25 seconds, was sufficient to wet plants to run-off. As a control, 100-110 milliliters of a water-acetone-emulsifier solution containing no test compound were also sprayed on infested plants. When dry, the paired leaves were separated and each one was placed in a 9 centimeter Petric dish lined with moistened filter paper. Five randomly selected larvae were introduced into each dish and the dishes were closed. The closed dishes were labeled and held at 80°-85° F. for three days. Although the larvae could easily consume the whole leaf within twenty-four hours, no more food was added. Larvae which were unable to move the length of the body, even upon stimulation by prodding, were considered dead. Per cent mortality was recorded for various concentration levels.
as §3

[4] = tested on: house flies (Musca domestica, L.); experiment: Fly Bait Test; details: adults, 500 ppm in sugar bait, twenty four hours
Description: as §1, §2
Four to six day old adult house flies (Musca domestica, L.) reared according to the specifications of the Chemical Specialities Manufacturing Association (Blue Book, McNair-Dorland Co., NY., 1954; pages 234-244, 261) under controlled conditions of 80°±5° F. and 50±5 per cent relative humidity, were the test insects. The flies were immobilized by anesthetizing with carbon dioxide and twenty five immobilized individuals, males and females, were transferred to a cage consisting of a standard food stainer about five inches in diameter which was inverted over a wrapping-paper-covered surface. The test compounds were formulated by diluting the stock suspension with a 10 per cent (by weight) sugar solution to give a suspension containing 500 parts of test compound per million parts of final formulation, by weight. Ten milliliters of the test formulation were added to a souffle cup containing a one inch square of an absorbent cotton pad. This bait cup was introduced and centered on the blotting paper under the food strainer prior to admitting the anesthetized flies. The caged flies were allowed to feed on the bait for twenty four hours, at a temperature of 80°±5° F. and the relative humidity of 50±5 per cent.
as §3

[5] = tested on: bean aphid (Aphis fabae Scop.); experiment: Bean Aphid Foliage Spray Test; details: 500 ppm foliage spray, 24 hour holding period
Description: as §1, §2
Bean Aphid Foliage Spray Test
Adults and nymphal stages of the bean aphid (Aphis fabae Scop.) reared on potted dwarf nasturtium plants at 65°-70° F. and 50-70 per cent relative humidity, constituted the test insects. For testing purposes, the number of aphids per pot was standardized to 100-150 by trimming plants containing excess aphids.
The test compounds were formulated by diluting the stock suspension with water to give a suspension containing 500 parts of test compound per million parts of final formulation.
The potted plants (one pot per compound tested) infested with 100-150 aphids, were placed on a revolving turntable and sprayed with 100-110 milliliters of test compound formulation by use of a DeVilbiss spray gun set at 40 psig. air pressure. This application, which lasted 25 seconds, was sufficient to wet the plants to run-off. As a control, 100-110 milliliters of a water-acetone-emulsifier solution containing no test compound were also sprayed on infested plants. After spraying, the pots were placed on their sides on a sheet of white standard mimeograph paper which had been previously ruled to facilitate counting. Temperature and humidity in the test room during the 24 hour holding period were 65°-70° F. and 50-70 per cent, respectively. Aphids which fell into the paper and were unable to remain standing after being uprighted were considered dead. Aphids remaining on the plants wre observed closely for movement and those which were unable to move the length of the body upon stimulator by prodding were considered dead. Per cent mortality was recorded for various concentration levels.
as §3

Row | Compound | Mexican Bean Beetle pesticidal activity rating [1] | Mite pesticidal activity rating [2] | Southern Armyworm pesticidal activity rating [3] | House-Fly pesticidal activity rating [4] | Bean Aphid pesticidal activity rating [5]
1 | CCOC(=O)C(C#N)=C1SC(=NOC(=O)NC)C(C)(C)S1 [LXI] | A | C | C | C | C
2 | CNC(=O)ON=C1SC(=C[N+](=O)[O-])SC1(C)C [LXVII] | A | C | A | A | B
3 | CN(SSC(C)(C)C)C(=O)ON=C1SC(=C(C#N)C#N)SC1(C)C [LXIV] | A | C | B | B | A
4 | CCOC(=O)C(C#N)=C1SC(=NOC(=O)N(C)SC(Cl)(Cl)Cl)C(C)(C)S1 [LXV] | A | C | C | A | B
5 | CNC(=O)ON=C1SC(=NC2CCCCC2)SC1(C)C [LIV] | B | B | C | A | A
6 | CN(SC(Cl)(Cl)Cl)C(=O)ON=C1SC(=NC(C)(C)C)SC1(C)C [LI] | A | B | C | A | A
7 | CN(C)N=C1SC(=NOC(=O)N(C)SC(Cl)(Cl)Cl)C(C)(C)S1 [LVI] | A | A | A | A | A
8 | CCCCN=C1SC(=NOC(=O)NC)C(C)(C)S1 [LII] | A | C | B | A | A
9 | CC(C)C(=O)C(C)(C)SSN(C)C(=O)ON=C1SC(=C(C#N)C#N)SC1(C)C [LXXV] | B | A | B | C | A
10 | CNC(=O)ON=C1SC(=S)SC1(C)C [LXXI] | A | B | B | B | A
11 | CNC(=O)ON=C1SC(=NS(C)(=O)=O)SC1(C)C [LVII] | B | C | B | B | B
12 | CNC(=O)ON=C1SC(=C(C#N)c2ccccc2)SC1(C)C [LXVI] | B | C | C | C | C
13 | CN=C1SC(=NOC(=O)NC)C(C)(C)S1 [XL, 5,5-Dimethyl-2-methylimino-4-[O-(N-methylcarbamoyl)oximino]-1,3-dithiolane] | A | A | B | A | A
14 | CN(Sc1ccc(C(C)(C)C)cc1)C(=O)ON=C1SC(=C(C#N)C#N)SC1(C)C [LXXIII] | A | B | C | C | A
15 | Cc1ccc(S(=O)(=O)N=C2SC(=NOC(=O)N(C)SC(Cl)(Cl)Cl)C(C)(C)S2)cc1 [LX] | B | C | B | B | C
16 | CN(C)C(=O)ON=C1SC(=C(C#N)C#N)SC1(C)C [XLIII, 5,5-Dimethyl-2-(dicyanomethylidene)-4-[O-(N,N-dimethylcarbamoyl)oximino]-1,3-dithiolane] | B | C | C | B | B
17 | CCN=C1SC(=NOC(=O)N(C)SC(Cl)(Cl)Cl)C(C)(C)S1 [XLI, 5,5-Dimethyl-2-ethylimino-4-[[O-[N-methyl-N-(trichloromethanesulfenyl)carbamoyl]oximino]]-1,3-dithiolane] | A | A | B | A | A
